From article PMC9481151, “Discovery of new symmetrical and asymmetrical nitrile-containing 1,4-dihydropyridine derivatives as dual kinases and P-glycoprotein inhibitors: synthesis, in vitro assays, and in silico studies” (Journal of Enzyme Inhibition and Medicinal Chemistry, 2022)

Legend:
MDA-MB-468 = assay: NCI single dose (10 µM) SRB screen; type: cell-based, human; conditions: breast cancer, 48 h
CAKI-1 = assay: NCI single dose (10 µM) SRB screen; type: cell-based, human; conditions: renal cancer, 48 h
Staphylococcus aureus = assay: Agar well diffusion method; conditions: for zone of inhibition at 1000 µg/mL: Staphylococcus aureus, 24 h, read-out: Diameter of inhibition zone, S. aureus; for % activity index, S. aureus: relative to ciprofloxacin
SNB-75 = assay: NCI single dose (10 µM) SRB screen; type: cell-based, human; conditions: CNS cancer, 48 h
SK-OV-3 = assay: NCI single dose (10 µM) SRB screen; type: cell-based, human; conditions: ovarian cancer, 48 h
SW-620 = assay: NCI single dose (10 µM) SRB screen; type: cell-based, human; conditions: colon cancer, 48 h
SNB-19 = assay: NCI single dose (10 µM) SRB screen; type: cell-based, human; conditions: CNS cancer, 48 h
RPMI-8226 = assay: NCI single dose (10 µM) SRB screen; type: cell-based, human; conditions: leukaemia, 48 h
NCI/ADR-RES = assay: NCI single dose (10 µM) SRB screen; type: cell-based, human; conditions: ovarian cancer, 48 h
Candida albicans = assay: Agar well diffusion method; conditions: for % activity index, C. albicans: relative to clotrimazole
NCI-H23 = assay: NCI single dose (10 µM) SRB screen; type: cell-based, human; conditions: non-small cell lung cancer, 48 h
Bacillus subtilis = assay: Agar well diffusion method; conditions: for % activity index, B. subtilis: relative to ciprofloxacin
MOLT-4 = assay: NCI single dose (10 µM) SRB screen; type: cell-based, human; conditions: leukaemia, 48 h
HS578T = assay: NCI single dose (10 µM) SRB screen; type: cell-based, human; conditions: breast cancer, 48 h
PC-3 = assay: NCI single dose (10 µM) SRB screen; type: cell-based, human; conditions: prostate cancer, 48 h
EKVX = assay: NCI single dose (10 µM) SRB screen; type: cell-based, human; conditions: non-small cell lung cancer, 48 h
SF-268 = assay: NCI single dose (10 µM) SRB screen; type: cell-based, human; conditions: CNS cancer, 48 h
A498 = assay: NCI single dose (10 µM) SRB screen; type: cell-based, human; conditions: renal cancer, 48 h
HOP-62 = assay: NCI single dose (10 µM) SRB screen; type: cell-based, human; conditions: non-small cell lung cancer, 48 h
MDA-MB-231 = assay: NCI single dose (10 µM) SRB screen; type: cell-based, human; conditions: breast cancer, 48 h
SK-MEL-5 = assay: NCI single dose (10 µM) SRB screen; type: cell-based, human; conditions: melanoma, 48 h
BT-549 = assay: NCI single dose (10 µM) SRB screen; type: cell-based, human; conditions: breast cancer, 48 h
HOP-92 = assay: NCI single dose (10 µM) SRB screen; type: cell-based, human; conditions: non-small cell lung cancer, 48 h
MDA-MB-435 = assay: NCI single dose (10 µM) SRB screen; type: cell-based, human; conditions: melanoma, 48 h
TK-10 = assay: NCI single dose (10 µM) SRB screen; type: cell-based, human; conditions: renal cancer, 48 h
SR = assay: NCI single dose (10 µM) SRB screen; type: cell-based, human; conditions: leukaemia, 48 h
HCT-116 = assay: NCI single dose (10 µM) SRB screen; type: cell-based, human; conditions: colon cancer, 48 h
NCI 60 cancer cell lines = assay: NCI single dose (10 µM) SRB screen, mean over panel; type: cell-based, human; conditions: mean over 60 cell lines, 48 h
M14 = assay: NCI single dose (10 µM) SRB screen; type: cell-based, human; conditions: melanoma, 48 h
Escherichia coli = assay: Agar well diffusion method; conditions: for % activity index, E. coli: relative to ciprofloxacin
SF-295 = assay: NCI single dose (10 µM) SRB screen; type: cell-based, human; conditions: CNS cancer, 48 h
UO-31 = assay: NCI single dose (10 µM) SRB screen; type: cell-based, human; conditions: renal cancer, 48 h
U251 = assay: NCI single dose (10 µM) SRB screen; type: cell-based, human; conditions: CNS cancer, 48 h
HCT-15 = assay: NCI single dose (10 µM) SRB screen; type: cell-based, human; conditions: colon cancer, 48 h
ACHN = assay: NCI single dose (10 µM) SRB screen; type: cell-based, human; conditions: renal cancer, 48 h
DU-145 = assay: NCI single dose (10 µM) SRB screen; type: cell-based, human; conditions: prostate cancer, 48 h
HL-60(TB) = assay: NCI single dose (10 µM) SRB screen; type: cell-based, human; conditions: leukaemia, 48 h
COLO 205 = assay: NCI single dose (10 µM) SRB screen; type: cell-based, human; conditions: colon cancer, 48 h
NCI-H522 = assay: NCI single dose (10 µM) SRB screen; type: cell-based, human; conditions: non-small cell lung cancer, 48 h
HCC-2998 = assay: NCI single dose (10 µM) SRB screen; type: cell-based, human; conditions: colon cancer, 48 h
NCI-H226 = assay: NCI single dose (10 µM) SRB screen; type: cell-based, human; conditions: non-small cell lung cancer, 48 h
MCF7 = assay: NCI single dose (10 µM) SRB screen; type: cell-based, human; conditions: breast cancer, 48 h
NCI-H322M = assay: NCI single dose (10 µM) SRB screen; type: cell-based; conditions: non-small cell lung cancer, 48 h
HT29 = assay: NCI single dose (10 µM) SRB screen; type: cell-based, human; conditions: colon cancer, 48 h
CCRF-CEM = assay: NCI single dose (10 µM) SRB screen; type: cell-based, human; conditions: leukaemia, 48 h
UACC-62 = assay: NCI single dose (10 µM) SRB screen; type: cell-based, human; conditions: melanoma, 48 h
MALME-3M = assay: NCI single dose (10 µM) SRB screen; type: cell-based, human; conditions: melanoma, 48 h
A549/ATCC = assay: NCI single dose (10 µM) SRB screen; type: cell-based, human; conditions: non-small cell lung cancer, 48 h
LOX IMVI = assay: NCI single dose (10 µM) SRB screen; type: cell-based, human; conditions: melanoma, 48 h
KM12 = assay: NCI single dose (10 µM) SRB screen; type: cell-based, human; conditions: colon cancer, 48 h
UACC-257 = assay: NCI single dose (10 µM) SRB screen; type: cell-based, human; conditions: melanoma, 48 h
SK-MEL-2 = assay: NCI single dose (10 µM) SRB screen; type: cell-based, human; conditions: melanoma, 48 h

## COCCOC(=O)C1=C(C)NC(C)=C(C(=O)OC)C1c1cccc(C#N)c1 (racemic) [Compound 2d, (±)-3-(2-Methoxyethyl) 5-methyl 4-(3-cyanophenyl)-2,6-dimethyl-1,4-dihydropyridine-3,5-dicarboxylate]
MDA-MB-468
  GI% MDA-MB-468: – (Only GI% ≥ 10 are shown)
CAKI-1
  GI% CAKI-1: – (Only GI% ≥ 10 are shown)
Staphylococcus aureus
  zone of inhibition at 1000 µg/mL: 15 mm
  % activity index, S. aureus: 62.5%
SNB-75
  GI% SNB-75: 15%
SK-OV-3
  GI% SK-OV-3: – (Only GI% ≥ 10 are shown)
SW-620
  GI% SW-620: – (Only GI% ≥ 10 are shown)
SNB-19
  GI% SNB-19: – (Only GI% ≥ 10 are shown)
RPMI-8226
  GI% RPMI-8226: – (Only GI% ≥ 10 are shown)
NCI/ADR-RES
  GI% NCI/ADR-RES: – (Only GI% ≥ 10 are shown)
Candida albicans; Candida albicans, 24 h, read-out: Diameter of inhibition zone, C. albicans
  zone of inhibition at 1000 µg/mL: 12 mm
Candida albicans
  % activity index, C. albicans: 44.4%
NCI-H23
  GI% NCI-H23: – (Only GI% ≥ 10 are shown)
Bacillus subtilis; Bacillus subtilis, 24 h, read-out: Diameter of inhibition zone, B. subtilis
  zone of inhibition at 1000 µg/mL: 10 mm
Bacillus subtilis
  % activity index, B. subtilis: 43.5%
MOLT-4
  GI% MOLT-4: – (Only GI% ≥ 10 are shown)
HS578T
  GI% HS578T: – (Only GI% ≥ 10 are shown)
PC-3
  GI% PC-3: – (Only GI% ≥ 10 are shown)
EKVX
  GI% EKVX: – (Only GI% ≥ 10 are shown)
SF-268
  GI% SF-268: – (Only GI% ≥ 10 are shown)
A498
  GI% A498: 12%
HOP-62
  GI% HOP-62: – (Only GI% ≥ 10 are shown)
MDA-MB-231
  GI% MDA-MB-231: – (Only GI% ≥ 10 are shown)
SK-MEL-5
  GI% SK-MEL-5: – (Only GI% ≥ 10 are shown)
BT-549
  GI% BT-549: – (Only GI% ≥ 10 are shown)
HOP-92
  GI% HOP-92: – (Only GI% ≥ 10 are shown)
MDA-MB-435
  GI% MDA-MB-435: – (Only GI% ≥ 10 are shown)
TK-10
  GI% TK-10: – (Only GI% ≥ 10 are shown)
SR
  GI% SR: – (Only GI% ≥ 10 are shown)
HCT-116
  GI% HCT-116: – (Only GI% ≥ 10 are shown)
NCI 60 cancer cell lines
  Mean GI%: −2%
M14
  GI% M14: – (Only GI% ≥ 10 are shown)
Escherichia coli; Escherichia coli, 24 h, read-out: Diameter of inhibition zone, E. coli
  zone of inhibition at 1000 µg/mL: 10 mm
Escherichia coli
  % activity index, E. coli: 38.5%
SF-295
  GI% SF-295: – (Only GI% ≥ 10 are shown)
UO-31
  GI% UO-31: – (Only GI% ≥ 10 are shown)
U251
  GI% U251: – (Only GI% ≥ 10 are shown)
HCT-15
  GI% HCT-15: – (Only GI% ≥ 10 are shown)
ACHN
  GI% ACHN: – (Only GI% ≥ 10 are shown)
DU-145
  GI% DU-145: – (Only GI% ≥ 10 are shown)
HL-60(TB)
  GI% HL-60(TB): – (Only GI% ≥ 10 are shown)
COLO 205
  GI% COLO 205: – (Only GI% ≥ 10 are shown)
NCI-H522
  GI% NCI-H522: – (Only GI% ≥ 10 are shown)
HCC-2998
  GI% HCC-2998: – (Only GI% ≥ 10 are shown)
NCI-H226
  GI% NCI-H226: – (Only GI% ≥ 10 are shown)
MCF7
  GI% MCF7: – (Only GI% ≥ 10 are shown)
NCI-H322M
  GI% NCI-H322M: – (Only GI% ≥ 10 are shown)
HT29
  GI% HT29: – (Only GI% ≥ 10 are shown)
CCRF-CEM
  GI% CCRF-CEM: – (Only GI% ≥ 10 are shown)
UACC-62
  GI% UACC-62: – (Only GI% ≥ 10 are shown)
MALME-3M
  GI% MALME-3M: – (Only GI% ≥ 10 are shown)
A549/ATCC
  GI% A549/ATCC: – (Only GI% ≥ 10 are shown)
LOX IMVI
  GI% LOX IMVI: – (Only GI% ≥ 10 are shown)
KM12
  GI% KM12: – (Only GI% ≥ 10 are shown)
UACC-257
  GI% UACC-257: – (Only GI% ≥ 10 are shown)
SK-MEL-2
  GI% SK-MEL-2: – (Only GI% ≥ 10 are shown)

## COC(=O)C1=C(C)NC(C)=C(C(=O)OCc2ccccc2)C1c1cccc(C#N)c1 (racemic) [Compound 2e, (±)-3-Benzyl 5-methyl 4-(3-cyanophenyl)-2,6-dimethyl-1,4-dihydropyridine-3,5-dicarboxylate]
MDA-MB-468
  GI% MDA-MB-468: 33%
CAKI-1
  GI% CAKI-1: 27%
Staphylococcus aureus
  zone of inhibition at 1000 µg/mL: 8 mm
  % activity index, S. aureus: 33.3%
SNB-75
  GI% SNB-75: 34%
SK-OV-3
  GI% SK-OV-3: – (Only GI% ≥ 10 are shown)
SW-620
  GI% SW-620: 45%
SNB-19
  GI% SNB-19: 32%
RPMI-8226
  GI% RPMI-8226: 52%
NCI/ADR-RES
  GI% NCI/ADR-RES: 25%
Candida albicans
  % activity index, C. albicans: – (Values below 25 are of limited value and not shown as they refer either to inactive or non-diffusing compounds)
NCI-H23
  GI% NCI-H23: – (Only GI% ≥ 10 are shown)
Bacillus subtilis
  % activity index, B. subtilis: – (Values below 25 are of limited value and not shown as they refer either to inactive or non-diffusing compounds)
MOLT-4
  GI% MOLT-4: 56%
HS578T
  GI% HS578T: 28%
PC-3
  GI% PC-3: 51%
EKVX
  GI% EKVX: 26%
SF-268
  GI% SF-268: 23%
A498
  GI% A498: 10%
HOP-62
  GI% HOP-62: 16%
MDA-MB-231
  GI% MDA-MB-231: 30%
SK-MEL-5
  GI% SK-MEL-5: 37%
BT-549
  GI% BT-549: – (Only GI% ≥ 10 are shown)
HOP-92
  GI% HOP-92: 12%
MDA-MB-435
  GI% MDA-MB-435: 35%
TK-10
  GI% TK-10: – (Only GI% ≥ 10 are shown)
SR
  GI% SR: 33%
HCT-116
  GI% HCT-116: 71%
NCI 60 cancer cell lines
  Mean GI%: 28%
M14
  GI% M14: 15%
Escherichia coli
  % activity index, E. coli: – (Values below 25 are of limited value and not shown as they refer either to inactive or non-diffusing compounds)
SF-295
  GI% SF-295: 44%
UO-31
  GI% UO-31: – (Only GI% ≥ 10 are shown)
U251
  GI% U251: 46%
HCT-15
  GI% HCT-15: 66%
ACHN
  GI% ACHN: 28%
DU-145
  GI% DU-145: 15%
HL-60(TB)
  GI% HL-60(TB): 43%
COLO 205
  GI% COLO 205: 43%
NCI-H522
  GI% NCI-H522: 24%
HCC-2998
  GI% HCC-2998: – (Only GI% ≥ 10 are shown)
NCI-H226
  GI% NCI-H226: 31%
MCF7
  GI% MCF7: 29%
NCI-H322M
  GI% NCI-H322M: – (Only GI% ≥ 10 are shown)
HT29
  GI% HT29: 31%
CCRF-CEM
  GI% CCRF-CEM: 37%
UACC-62
  GI% UACC-62: 37%
MALME-3M
  GI% MALME-3M: 24%
A549/ATCC
  GI% A549/ATCC: 31%
LOX IMVI
  GI% LOX IMVI: 61%
KM12
  GI% KM12: 39%
UACC-257
  GI% UACC-257: 21%
SK-MEL-2
  GI% SK-MEL-2: – (Only GI% ≥ 10 are shown)
